Molecules are shown by their SMILES.

For this experiment, the target named is T1, NTRK2 (TRKB) (Homo sapiens, UniProt Q16620).
T1 construct: purchased Thermo Fisher Scientific (Life Technologies) SelectScreen
Put plainly: SelectScreen Z'LYTE. The format is biochemical. In a few lines: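 Percent values come from Thermo SelectScreen profiling of NU5455, combining activity and binding assays. CSF1R was run in Z'LYTE format at Km app ATP, and CAMK1 in Adapta format with ATP listed at 10.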

T1 sequence (Q16620 32-822): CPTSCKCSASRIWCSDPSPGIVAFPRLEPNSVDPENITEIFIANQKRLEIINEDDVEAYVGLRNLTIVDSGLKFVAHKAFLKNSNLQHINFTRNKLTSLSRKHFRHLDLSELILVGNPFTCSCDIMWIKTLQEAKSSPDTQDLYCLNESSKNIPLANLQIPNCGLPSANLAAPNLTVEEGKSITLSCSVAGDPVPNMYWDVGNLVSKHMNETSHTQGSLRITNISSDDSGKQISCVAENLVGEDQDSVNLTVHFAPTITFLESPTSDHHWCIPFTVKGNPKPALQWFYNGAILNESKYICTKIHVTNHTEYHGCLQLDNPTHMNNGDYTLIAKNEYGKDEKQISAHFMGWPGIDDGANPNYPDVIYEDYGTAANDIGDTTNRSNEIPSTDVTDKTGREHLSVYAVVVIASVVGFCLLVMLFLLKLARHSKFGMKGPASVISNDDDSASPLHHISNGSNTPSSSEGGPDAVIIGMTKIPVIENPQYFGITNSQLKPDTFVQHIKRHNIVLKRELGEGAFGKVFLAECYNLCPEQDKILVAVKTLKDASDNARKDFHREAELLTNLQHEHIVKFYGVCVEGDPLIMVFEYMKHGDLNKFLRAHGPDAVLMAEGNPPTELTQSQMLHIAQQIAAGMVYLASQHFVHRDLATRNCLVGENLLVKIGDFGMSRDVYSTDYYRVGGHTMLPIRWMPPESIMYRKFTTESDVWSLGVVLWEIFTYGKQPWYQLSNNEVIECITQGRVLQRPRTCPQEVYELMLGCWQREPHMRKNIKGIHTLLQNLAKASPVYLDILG

By inhibition is commonly meant the drop in the measured response relative to a control, in per cent. In turn, `CN(C(=O)CN1CCOCC1)c1ccc2sc3c(-c4cccc5c(=O)cc(N6CC7CCC(C6)O7)oc45)cccc3c2c1` [NU5455] registered an inhibition at 1 µM of 5.1%.

The values are drawn from paper PMC6934184, “Selective DNA-PKcs inhibition extends the therapeutic index of localized radiotherapy and chemotherapy” (The Journal of Clinical Investigation, 2019).
